Results: the supplement of paper PMC4862054

What was measured:
Assay in all cases: normalised response (% of control), CellTiter-Glo; higher = more viable cells (100 = DMSO, 0 = benzethonium chloride kill control)
Details in all cases: incubation time: 72 h
BT-474 = test system: BT-474
How it was run: (§1)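 Every value is a normalised signal taken at one concentration of a dilution series. Compound was placed in 384-well plates at 5 concentrations in 10-fold steps over a compound-specific 10,000-fold range, and 20 µl of breast cancer cell suspension was seeded onto it. After 72 h, CellTox Green fluorescence (485/520 nm) was measured first and CellTiter-Glo luminescence second, following 10 min at room temperature. Each plate was scaled to 0.1 % DMSO (100) and a positive kill control (0).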

BT-549 = test system: BT-549
How it was run: as §1

CAL-120 = test system: CAL-120
How it was run: as §1

CAL-148 = test system: CAL-148
How it was run: as §1

CAL-51 = test system: CAL-51
How it was run: as §1

CAL-85-1 = test system: CAL-85-1
How it was run: as §1

DU-4475 = test system: DU-4475
How it was run: as §1

HCC1143 = test system: HCC1143
How it was run: as §1

HCC1599 = test system: HCC1599
How it was run: as §1

HCC1937 = test system: HCC1937
How it was run: as §1

HDQ-P1 = test system: HDQ-P1
How it was run: as §1

Hs578T = test system: Hs578T
How it was run: as §1

MCF-10A = test system: MCF-10A
How it was run: as §1

MDA-MB-231 = test system: MDA-MB-231
How it was run: as §1

MDA-MB-436 = test system: MDA-MB-436
How it was run: as §1

MDA-MB-453 = test system: MDA-MB-453
How it was run: as §1

MDA-MB-468 = test system: MDA-MB-468
How it was run: as §1

MFM-223 = test system: MFM-223
How it was run: as §1

SK-BR-3 = test system: SK-BR-3
How it was run: as §1

`Cc1cc2c(F)c(Oc3ncnn4cc(OC[C@@H](C)O)c(C)c34)ccc2[nH]1` [Brivanib] (1000 nM) gave a normalised response (BT-474) of 108%, a normalised response (BT-549) of 98.3% and a normalised response (CAL-120) of 112%. For the same compound, the normalised response (CAL-148) was 112%, the normalised response (CAL-51) was 83% and the normalised response (CAL-85-1) was 93.4%. The normalised response (DU-4475) was 103%, the normalised response (HCC1143) was 100% and the normalised response (HCC1599) was 104%. For the same compound, the normalised response (HCC1937) was 95.1%, the normalised response (HDQ-P1) was 97.7% and the normalised response (Hs578T) was 101%. The normalised response (MCF-10A) was 108%, the normalised response (MDA-MB-231) was 104% and the normalised response (MDA-MB-436) was 112%. The normalised response (MDA-MB-453) was 108%, the normalised response (MDA-MB-468) was 107% and the normalised response (MFM-223) was 110%. The normalised response (SK-BR-3) was 113%.

In the case of `CC/C(=C(\c1ccccc1)c1ccc(OCCN(C)C)cc1)c1ccccc1` [Tamoxifen] (10000 nM), the normalised response (BT-474) was 69.3%, the normalised response (BT-549) was 78.2% and the normalised response (CAL-120) was 90%. For the same compound, the normalised response (CAL-148) was 77.7%, the normalised response (CAL-51) was 71.7% and the normalised response (CAL-85-1) was 81.6%. It also gave a normalised response (DU-4475) of 85.7%, a normalised response (HCC1143) of 95.7% and a normalised response (HCC1599) of 73%. For the same compound, the normalised response (HCC1937) was 51.8%, the normalised response (HDQ-P1) was 99.1% and the normalised response (Hs578T) was 87.8%. For the same compound, the normalised response (MCF-10A) was 74.3%, the normalised response (MDA-MB-231) was 60.8% and the normalised response (MDA-MB-436) was 86.9%. For the same compound, the normalised response (MDA-MB-453) was 23.5%, the normalised response (MDA-MB-468) was 77% and the normalised response (MFM-223) was 58.2%. The normalised response (SK-BR-3) was 53.4%.

Compound `CC(C)C(=O)Nc1ccc([N+](=O)[O-])c(C(F)(F)F)c1` [Flutamide] (10000 nM) has a normalised response (BT-474) of 95.6%, a normalised response (BT-549) of 94.1% and a normalised response (CAL-120) of 104%. It also gave a normalised response (CAL-148) of 101%, a normalised response (CAL-51) of 89.6% and a normalised response (CAL-85-1) of 90.1%. It also gave a normalised response (DU-4475) of 97.7%, a normalised response (HCC1143) of 95% and a normalised response (HCC1599) of 90%. The normalised response (HCC1937) was 92.7%, the normalised response (HDQ-P1) was 92.4% and the normalised response (Hs578T) was 101%. It also gave a normalised response (MCF-10A) of 96.7%, a normalised response (MDA-MB-231) of 93.3% and a normalised response (MDA-MB-436) of 98.4%. For the same compound, the normalised response (MDA-MB-453) was 96.1%, the normalised response (MDA-MB-468) was 93.9% and the normalised response (MFM-223) was 90.9%. The normalised response (SK-BR-3) was 105%.

With `O=C(O)CC[C@H]1CC[C@@](c2cc(F)ccc2F)(S(=O)(=O)c2ccc(Cl)cc2)CC1` [MK-0752] (1000 nM) the normalised response (BT-474) was 95.4%, the normalised response (BT-549) was 93% and the normalised response (CAL-120) was 105%. It also gave a normalised response (CAL-148) of 115%, a normalised response (CAL-51) of 126% and a normalised response (CAL-85-1) of 98.1%. The normalised response (DU-4475) was 102%, the normalised response (HCC1143) was 103% and the normalised response (HCC1599) was 89%. The normalised response (HCC1937) was 95.1%, the normalised response (HDQ-P1) was 95.5% and the normalised response (Hs578T) was 98.5%. It also gave a normalised response (MCF-10A) of 95.6%, a normalised response (MDA-MB-231) of 97% and a normalised response (MDA-MB-436) of 105%. It also gave a normalised response (MDA-MB-453) of 108%, a normalised response (MDA-MB-468) of 94% and a normalised response (MFM-223) of 100%. It also gave a normalised response (SK-BR-3) of 117%.

`CC(C)C[C@H](NC(=O)[C@H](CCc1ccccc1)NC(=O)CN1CCOCC1)C(=O)N[C@@H](Cc1ccccc1)C(=O)N[C@@H](CC(C)C)C(=O)[C@@]1(C)CO1` [Carfilzomib] (1000 nM) gave a normalised response (BT-474) of 6.38%, a normalised response (BT-549) of 2.23% and a normalised response (CAL-120) of 1.88%. It also gave a normalised response (CAL-148) of 7.77%, a normalised response (CAL-51) of 1.12% and a normalised response (CAL-85-1) of 1.03%. The normalised response (DU-4475) was 7.95%, the normalised response (HCC1143) was 5.78% and the normalised response (HCC1599) was 8.99%. It also gave a normalised response (HCC1937) of 2.47%, a normalised response (HDQ-P1) of 0.05% and a normalised response (Hs578T) of 0.58%. For the same compound, the normalised response (MCF-10A) was 0.46%, the normalised response (MDA-MB-231) was 0.28% and the normalised response (MDA-MB-436) was 2.1%. The normalised response (MDA-MB-453) was 14.3%, the normalised response (MDA-MB-468) was 1.29% and the normalised response (MFM-223) was 6.19%. It also gave a normalised response (SK-BR-3) of 2.94%.

For `Nc1nc(Cl)nc2c1ncn2[C@@H]1O[C@H](CO)[C@@H](O)[C@@H]1F` [Clofarabine] (10000 nM), the normalised response (BT-474) was 66.3%, the normalised response (BT-549) was 27.4% and the normalised response (CAL-120) was 69.8%. The normalised response (CAL-148) was 40.5%, the normalised response (CAL-51) was 17% and the normalised response (CAL-85-1) was 35.4%. It also gave a normalised response (DU-4475) of 49.3%, a normalised response (HCC1143) of 40.3% and a normalised response (HCC1599) of 29.1%. For the same compound, the normalised response (HCC1937) was 84.2%, the normalised response (HDQ-P1) was 73.7% and the normalised response (Hs578T) was 68.2%. It also gave a normalised response (MCF-10A) of 56.9%, a normalised response (MDA-MB-231) of 73% and a normalised response (MDA-MB-436) of 21.4%. It also gave a normalised response (MDA-MB-453) of 75.3%, a normalised response (MDA-MB-468) of 16.4% and a normalised response (MFM-223) of 92.3%. The normalised response (SK-BR-3) was 36.8%.

`CO[C@H]1C[C@@H]2CC[C@@H](C)[C@@](O)(O2)C(=O)C(=O)N2CCCC[C@H]2C(=O)O[C@H]([C@H](C)C[C@@H]2CC[C@@H](O)[C@H](OC)C2)CC(=O)[C@H](C)/C=C(\C)[C@@H](O)[C@@H](OC)C(=O)[C@H](C)C[C@H](C)/C=C/C=C/C=C/1C` [Sirolimus] (100 nM) showed a normalised response (BT-474) of 78.8%, a normalised response (BT-549) of 54.1% and a normalised response (CAL-120) of 64.5%. It also gave a normalised response (CAL-148) of 59.6%, a normalised response (CAL-51) of 61.3% and a normalised response (CAL-85-1) of 60.5%. The normalised response (DU-4475) was 72.8%, the normalised response (HCC1143) was 62.4% and the normalised response (HCC1599) was 95.8%. It also gave a normalised response (HCC1937) of 66.9%, a normalised response (HDQ-P1) of 73.4% and a normalised response (Hs578T) of 68.8%. It also gave a normalised response (MCF-10A) of 85.7%, a normalised response (MDA-MB-231) of 81.2% and a normalised response (MDA-MB-436) of 73.9%. For the same compound, the normalised response (MDA-MB-453) was 53.2%, the normalised response (MDA-MB-468) was 53.4% and the normalised response (MFM-223) was 64.9%. For the same compound, the normalised response (SK-BR-3) was 57.4%.

For `CCCCCOC(=O)Nc1nc(=O)n([C@@H]2O[C@H](C)[C@@H](O)[C@H]2O)cc1F` [Capecitabine] (10000 nM), the normalised response (BT-474) was 95.3%, the normalised response (BT-549) was 108% and the normalised response (CAL-120) was 98.5%. For the same compound, the normalised response (CAL-148) was 109%, the normalised response (CAL-51) was 107% and the normalised response (CAL-85-1) was 56%. The normalised response (DU-4475) was 90.7%, the normalised response (HCC1143) was 92.8% and the normalised response (HCC1599) was 90.4%. It also gave a normalised response (HCC1937) of 107%, a normalised response (HDQ-P1) of 81.3% and a normalised response (Hs578T) of 105%. It also gave a normalised response (MCF-10A) of 102%, a normalised response (MDA-MB-231) of 100% and a normalised response (MDA-MB-436) of 78.6%. For the same compound, the normalised response (MDA-MB-453) was 103%, the normalised response (MDA-MB-468) was 104% and the normalised response (MFM-223) was 102%. For the same compound, the normalised response (SK-BR-3) was 74.5%.

Compound `O=NN(CCCl)C(=O)NC1CCCCC1` [Lomustine] (10000 nM) has a normalised response (BT-474) of 97.2%, a normalised response (BT-549) of 104% and a normalised response (CAL-120) of 98.5%. It also gave a normalised response (CAL-148) of 97%, a normalised response (CAL-51) of 110% and a normalised response (CAL-85-1) of 99.9%. For the same compound, the normalised response (DU-4475) was 99.7%, the normalised response (HCC1143) was 96.2% and the normalised response (HCC1599) was 104%. For the same compound, the normalised response (HCC1937) was 99%, the normalised response (HDQ-P1) was 99.5% and the normalised response (Hs578T) was 103%. It also gave a normalised response (MCF-10A) of 104%, a normalised response (MDA-MB-231) of 95.9% and a normalised response (MDA-MB-436) of 105%. It also gave a normalised response (MDA-MB-453) of 107%, a normalised response (MDA-MB-468) of 101% and a normalised response (MFM-223) of 106%. The normalised response (SK-BR-3) was 101%.

For `NC(=O)c1cccc2cn(-c3ccc([C@@H]4CCCNC4)cc3)nc12` [MK-4827] (10000 nM), the normalised response (BT-474) was 85.8%, the normalised response (BT-549) was 83.7% and the normalised response (CAL-120) was 93.2%. The normalised response (CAL-148) was 71.8%, the normalised response (CAL-51) was 65.8% and the normalised response (CAL-85-1) was 81.8%. It also gave a normalised response (DU-4475) of 69.3%, a normalised response (HCC1143) of 87.3% and a normalised response (HCC1599) of 91.4%. It also gave a normalised response (HCC1937) of 101%, a normalised response (HDQ-P1) of 94.3% and a normalised response (Hs578T) of 85.2%. The normalised response (MCF-10A) was 101%, the normalised response (MDA-MB-231) was 87.4% and the normalised response (MDA-MB-436) was 68.9%. For the same compound, the normalised response (MDA-MB-453) was 108%, the normalised response (MDA-MB-468) was 45.8% and the normalised response (MFM-223) was 106%. The normalised response (SK-BR-3) was 73.3%.
